Measurements from patent US11420958B2, “Aryl and heteroaryl substituted indole compounds” (BRISTOL-MYERS SQUIBB COMPANY, priority 2017, dated 2022).

Key:
Assay type in all cases: cell-based
human TLR7 = human TLR7 (Homo sapiens (Human), UniProt Q9NYK1); experiment: TLR7 inhibition reporter assay (HEK-Blue, SEAP); conditions: HEK-Blue cells overexpressing human TLR7, gardiquimod 7.5 μM stimulation
Summary of the method: (§1)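 Reporter cells, NF-κB/AP-1-driven SEAP; cmpd 0.05 nM–50 μM final, 30 min RT pre-treat; stim gardiquimod 7.5 μM (TLR7), R848 15.9 μM (TLR8), ODN2006 5 nM (TLR9); 22 h 37 °C; % inhibition of SEAP signal.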

human TLR9 = human TLR9 (Homo sapiens (Human), UniProt Q9NR96); experiment: TLR9 inhibition reporter assay (HEK-Blue, SEAP); conditions: HEK-Blue cells overexpressing human TLR9, ODN2006 5 nM stimulation
Summary of the method: as §1

human TLR8 = human TLR8 (Homo sapiens (Human), UniProt Q9NR97); experiment: TLR8 inhibition reporter assay (HEK-Blue, SEAP); conditions: HEK-Blue cells overexpressing human TLR8, R848 15.9 μM stimulation
Summary of the method: as §1

Chain of human TLR9 (Q9NR96 26-1032): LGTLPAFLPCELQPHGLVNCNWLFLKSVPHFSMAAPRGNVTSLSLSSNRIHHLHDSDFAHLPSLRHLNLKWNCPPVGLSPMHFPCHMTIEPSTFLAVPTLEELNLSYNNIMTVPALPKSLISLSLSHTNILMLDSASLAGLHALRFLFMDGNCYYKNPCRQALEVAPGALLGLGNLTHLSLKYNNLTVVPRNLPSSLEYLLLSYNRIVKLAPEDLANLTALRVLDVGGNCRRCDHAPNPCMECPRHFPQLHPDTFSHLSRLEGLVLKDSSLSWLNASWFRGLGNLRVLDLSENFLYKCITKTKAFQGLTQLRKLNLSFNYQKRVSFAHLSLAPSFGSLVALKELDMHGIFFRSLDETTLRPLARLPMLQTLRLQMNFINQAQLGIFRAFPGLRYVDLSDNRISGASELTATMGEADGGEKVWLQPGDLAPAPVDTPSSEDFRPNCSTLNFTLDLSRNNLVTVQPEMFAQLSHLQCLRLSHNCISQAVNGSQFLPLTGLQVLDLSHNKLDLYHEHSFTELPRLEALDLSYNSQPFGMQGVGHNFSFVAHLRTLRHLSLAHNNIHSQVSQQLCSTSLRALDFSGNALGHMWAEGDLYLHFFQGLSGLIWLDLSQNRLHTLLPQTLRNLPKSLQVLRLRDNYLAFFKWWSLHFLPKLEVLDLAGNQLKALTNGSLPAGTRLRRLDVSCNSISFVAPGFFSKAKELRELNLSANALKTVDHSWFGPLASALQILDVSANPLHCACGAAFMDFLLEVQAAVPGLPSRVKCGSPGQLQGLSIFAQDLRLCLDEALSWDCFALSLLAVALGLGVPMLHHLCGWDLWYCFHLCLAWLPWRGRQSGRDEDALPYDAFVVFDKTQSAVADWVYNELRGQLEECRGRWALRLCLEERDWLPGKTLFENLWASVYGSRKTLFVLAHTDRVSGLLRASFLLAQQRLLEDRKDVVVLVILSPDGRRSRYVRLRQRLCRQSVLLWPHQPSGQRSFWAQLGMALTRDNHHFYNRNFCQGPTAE
Chain of human TLR7 (Q9NYK1 27-1049): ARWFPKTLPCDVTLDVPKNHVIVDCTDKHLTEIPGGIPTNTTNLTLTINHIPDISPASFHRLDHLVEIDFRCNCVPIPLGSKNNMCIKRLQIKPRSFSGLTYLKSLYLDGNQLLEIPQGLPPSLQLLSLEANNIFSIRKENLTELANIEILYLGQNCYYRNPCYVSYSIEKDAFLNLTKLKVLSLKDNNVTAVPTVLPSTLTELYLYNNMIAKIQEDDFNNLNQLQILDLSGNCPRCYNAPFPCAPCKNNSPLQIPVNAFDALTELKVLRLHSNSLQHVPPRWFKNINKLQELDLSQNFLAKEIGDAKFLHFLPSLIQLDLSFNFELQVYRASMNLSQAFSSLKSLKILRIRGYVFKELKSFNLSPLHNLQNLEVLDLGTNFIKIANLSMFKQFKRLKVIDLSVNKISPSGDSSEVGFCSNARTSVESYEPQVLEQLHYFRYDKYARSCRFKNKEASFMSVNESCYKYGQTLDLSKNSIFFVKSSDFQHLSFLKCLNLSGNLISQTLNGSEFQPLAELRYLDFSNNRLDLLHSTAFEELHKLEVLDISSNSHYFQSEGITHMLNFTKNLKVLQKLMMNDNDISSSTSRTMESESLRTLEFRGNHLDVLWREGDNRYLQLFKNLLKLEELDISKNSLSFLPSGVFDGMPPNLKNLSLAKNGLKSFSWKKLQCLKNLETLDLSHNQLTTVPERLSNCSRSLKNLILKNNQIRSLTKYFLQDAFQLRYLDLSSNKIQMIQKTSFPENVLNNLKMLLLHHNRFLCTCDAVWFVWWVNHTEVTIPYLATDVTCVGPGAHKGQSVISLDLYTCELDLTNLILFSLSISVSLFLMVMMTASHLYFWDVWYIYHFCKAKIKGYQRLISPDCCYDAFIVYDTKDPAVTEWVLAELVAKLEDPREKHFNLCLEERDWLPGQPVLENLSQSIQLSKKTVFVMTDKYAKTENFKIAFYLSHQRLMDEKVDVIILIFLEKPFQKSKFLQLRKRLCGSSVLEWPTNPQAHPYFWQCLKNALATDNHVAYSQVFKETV
Chain of human TLR8 (Q9NR97 27-1041): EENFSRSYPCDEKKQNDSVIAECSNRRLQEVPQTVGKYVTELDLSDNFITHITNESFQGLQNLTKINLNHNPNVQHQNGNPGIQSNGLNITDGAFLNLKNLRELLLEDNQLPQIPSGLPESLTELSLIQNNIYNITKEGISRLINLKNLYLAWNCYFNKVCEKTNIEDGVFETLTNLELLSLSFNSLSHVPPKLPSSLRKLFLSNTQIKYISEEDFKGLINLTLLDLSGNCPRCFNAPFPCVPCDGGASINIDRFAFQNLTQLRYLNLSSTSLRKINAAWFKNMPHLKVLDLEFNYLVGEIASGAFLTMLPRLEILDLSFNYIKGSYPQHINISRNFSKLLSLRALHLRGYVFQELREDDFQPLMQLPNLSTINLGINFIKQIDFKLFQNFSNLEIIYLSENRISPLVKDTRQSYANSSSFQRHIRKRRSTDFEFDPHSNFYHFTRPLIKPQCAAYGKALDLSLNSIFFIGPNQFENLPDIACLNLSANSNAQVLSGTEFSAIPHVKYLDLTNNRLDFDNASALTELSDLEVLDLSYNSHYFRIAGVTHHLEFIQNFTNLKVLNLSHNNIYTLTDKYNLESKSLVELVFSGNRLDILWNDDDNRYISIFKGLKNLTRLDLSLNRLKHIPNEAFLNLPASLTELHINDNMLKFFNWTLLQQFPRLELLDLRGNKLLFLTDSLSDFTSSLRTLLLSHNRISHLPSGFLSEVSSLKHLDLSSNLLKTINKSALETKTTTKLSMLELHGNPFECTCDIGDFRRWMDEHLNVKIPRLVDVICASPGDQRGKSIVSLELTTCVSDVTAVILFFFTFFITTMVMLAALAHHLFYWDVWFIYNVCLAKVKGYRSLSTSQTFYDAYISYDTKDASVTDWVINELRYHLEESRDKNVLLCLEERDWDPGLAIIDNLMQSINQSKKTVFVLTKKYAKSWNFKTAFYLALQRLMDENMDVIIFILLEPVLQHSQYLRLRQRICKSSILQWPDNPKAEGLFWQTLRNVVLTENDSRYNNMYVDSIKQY

SMILES	IC50 (human TLR7) [nM]	IC50 (human TLR9) [nM]	IC50 (human TLR8) [nM]
Cc1cc(-c2[nH]c3ccc(-c4ccc(N5CCN(C(C)C)CC5)nc4)cc3c2C(C)C)cc(C)n1 [Example 306, 2-(2,6-dimethylpyridin-4-yl)-3-isopropyl-5-(6-(4-isopropylpiperazin-1-yl)pyridin-3-yl)-1H-indole]	4.8	289	4.8
Cc1cc(-c2[nH]c3ccc(-c4nnc(CCCN(C)C)o4)cc3c2C(C)C)ccn1 [Example 77, 3-(5-(3-isopropyl-2-(2-methylpyridin-4-yl)-1H-indol-5-yl)-1,3,4-oxadiazol-2-yl)-N,N-dimethylpropan-1-amine]	29	695	1.7
CC(C)c1c(-c2ccnc3[nH]ncc23)[nH]c2ccc(-c3nnc(C4CN5CCC4CC5)o3)cc12 (stereo not drawn) [Example 220, 2-(3-isopropyl-2-(1H-pyrazolo[3,4-b]pyridin-4-yl)-1H-indol-5-yl)-5-(quinuclidin-3-yl)-1,3,4-oxadiazole]	76	238	12
CC(C)c1c(-c2ccnc3[nH]ncc23)[nH]c2ccc(-c3nnc(C(=O)NCCN(C)C)s3)cc12 [Example 195, N-(2-(dimethylamino)ethyl)-5-(3-isopropyl-2-(1H-pyrazolo[3,4-b]pyridin-4-yl)-1H-indol-5-yl)-1,3,4-thiadiazole-2-carboxamide]	18	668	2.5
COc1ccc(-c2[nH]c3ccc(-c4ccc(OC5CCNCC5)cc4)cc3c2C(C)C)cc1OC [Example 410, 2-(3,4-dimethoxyphenyl)-3-isopropyl-5-(4-(piperidin-4-yloxy)phenyl)-1H-indole]	274	4910	55
Cc1cc(-c2[nH]c3ccc(-c4ccc(N5CCNCC5)nc4)cc3c2C(C)C)ccn1 [Example 255, 3-isopropyl-2-(2-methylpyridin-4-yl)-5-(6-(piperazin-1-yl)pyridin-3-yl)-1H-indole]	12	340	2.9
COCCN(C)Cc1nnc(-c2ccc3[nH]c(-c4ccc(OC)c(OC)c4)c(C(C)C)c3c2)o1 [Example 121, N-((5-(2-(3,4-dimethoxyphenyl)-3-isopropyl-1H-indol-5-yl)-1,3,4-oxadiazol-2-yl)methyl)-2-methoxy-N-methylethan-1-amine]	108	> 50000	166
COc1ccc(-c2[nH]c3ccc(-c4cccc(C(=O)N5CC6CNCC6C5)c4)cc3c2CC(F)(F)F)cc1OC (stereo not drawn) [Example 42, (3-(2-(3,4-dimethoxyphenyl)-3-(2,2,2-trifluoroethyl)-1H-indol-5-yl)phenyl)(hexahydropyrrolo[3,4-c]pyrrol-2(1H)-yl)methanone]	448	710	27
COc1ccc(-c2[nH]c3ccc(-c4nnc(C(=O)N5CCN(C(C)=O)CC5)o4)cc3c2C(C)C)cc1OC [Example 92, 1-(4-(5-(2-(3,4-dimethoxyphenyl)-3-isopropyl-1H-indol-5-yl)-1,3,4-oxadiazole-2-carbonyl)piperazin-1-yl)ethan-1-one]	561	26300	109
COc1ccc(-c2[nH]c3ccc(-c4nnc(C(=O)N5CCC(N6CCCC6)CC5)o4)cc3c2C(C)C)cc1OC [Example 95, (5-(2-(3,4-dimethoxyphenyl)-3-isopropyl-1H-indol-5-yl)-1,3,4-oxadiazol-2-yl)(4-(pyrrolidin-1-yl)piperidin-1-yl)methanone]	99	1400	21
Cc1cc(-c2[nH]c3ccc(-c4nc(C(=O)NC5CCCNC5)co4)cc3c2C(C)C)cc(C)n1 (stereo not drawn) [Example 290, 2-(2-(2,6-dimethylpyridin-4-yl)-3-isopropyl-1H-indol-5-yl)-N-(piperidin-3-yl)oxazole-4-carboxamide]	38	3390	17
Cc1cc(-c2[nH]c3ccc(-c4nc(C(=O)NCCCCN5CCCC5)co4)cc3c2C(C)C)cc(C)n1 [Example 285, 2-(2-(2,6-dimethylpyridin-4-yl)-3-isopropyl-1H-indol-5-yl)-N-(4-(pyrrolidin-1-yl)butyl)oxazole-4-carboxamide]	8.6	466	5.6
CNCCN1CCn2nc(-c3ccc4[nH]c(-c5ccnc(C)c5)c(C(C)C)c4c3)c(C(=O)NC)c2C1 [Example 219, 2-(3-isopropyl-2-(2-methylpyridin-4-yl)-1H-indol-5-yl)-N-methyl-5-(2-(methylamino)ethyl)-4,5,6,7-tetrahydropyrazolo[1,5-a]pyrazine-3-carboxamide]	163	2600	147
CC(C)c1c(-c2ccnc3[nH]ncc23)[nH]c2ccc(-c3ccnn3C)cc12 [Example 428, 4-(3-isopropyl-5-(1-methyl-1H-pyrazol-5-yl)-1H-indol-2-yl)-1H-pyrazolo[3,4-b]pyridine]	194	14500	12
CC(C)c1c(-c2ccnc3[nH]ncc23)[nH]c2ccc(-c3nnc(C(=O)NC4CCN(C(C)C)CC4)o3)cc12 [Example 84, 5-(3-isopropyl-2-(1H-pyrazolo[3,4-b]pyridin-4-yl)-1H-indol-5-yl)-N-(1-isopropylpiperidin-4-yl)-1,3,4-oxadiazole-2-carboxamide]	87	235	6
COc1ccc(-c2[nH]c3ccc(-c4nnc(C(=O)N(C)CCc5ccccn5)o4)cc3c2C(C)C)cc1OC [Example 94, 5-(2-(3,4-dimethoxyphenyl)-3-isopropyl-1H-indol-5-yl)-N-methyl-N-(2-(pyridin-2-yl)ethyl)-1,3,4-oxadiazole-2-carboxamide]	181	13100	222
COc1ccc(-c2[nH]c3ccc(-c4cccc(C(=O)NCCN5CCOCC5)c4)cc3c2CC(F)(F)F)cc1OC [Example 29, 3-(2-(3,4-dimethoxyphenyl)-3-(2,2,2-trifluoroethyl)-1H-indol-5-yl)-N-(2-morpholinoethyl)benzamide]	416	7290	55
COc1ccc(-c2[nH]c3ccc(-c4cccc(C(=O)NC5CCN(C(C)C)CC5)c4)cc3c2C(C)C)cc1OC [Example 8, 3-(2-(3,4-dimethoxyphenyl)-3-isopropyl-1H-indol-5-yl)-N-(1-isopropylpiperidin-4-yl)benzamide]	114	1810	29
Cc1cc(-c2[nH]c3ccc(-c4nnc(Cn5ccnc5)o4)cc3c2C(C)C)ccn1 [Example 141, 2-((1H-imidazol-1-yl)methyl)-5-(3-isopropyl-2-(2-methylpyridin-4-yl)-1H-indol-5-yl)-1,3,4-oxadiazole]	192	> 50000	27
Cc1cc(-c2[nH]c3ccc(-c4nnc(C5CCNCC5)o4)cc3c2C(C)C)ccn1 [Example 66, 2-(3-isopropyl-2-(2-methylpyridin-4-yl)-1H-indol-5-yl)-5-(piperidin-4-yl)-1,3,4-oxadiazole]	53	2310	38
Cc1cc(-c2[nH]c3ccc(-c4ccc(N5CCNCC5)nc4)cc3c2C(C)C)cc(C)n1 [Example 257, 2-(2,6-dimethylpyridin-4-yl)-3-isopropyl-5-(6-(piperazin-1-yl)pyridin-3-yl)-1H-indole]	1.7	151	1.7
